SMILES strings stand for the structures.

For orientation: inhibition means the relative decrease from the control value, in per cent.

The first assay has as its system RSV strain A2. Description: RSV antiviral cytoprotection assay in Hep2 cells (RSV-induced cytopathic effect, Cell TiterGlo). The conditions noted are these: 0.5 μM compound; RSV A2-infected Hep2 cells; % inhibition calculated from 4-parameter dose response curve, normalized to 0% and 100%; 0.5 µM. It is filed as cell-based, Respiratory Syncytial Virus (RSV). The procedure, abridged: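 Hep2 cells were infected with RSV A2 and exposed to 3-fold compound dilutions, either 3,000 cells/well for 4 days (96-well) or 2000 cells/well at MOI 1:1000 for 5 days at 37° C. (384-well). Cytopathic effect was read by Cell TiterGlo luminescence, and EC50 or normalized % inhibition came from curve fits against infected and uninfected controls.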
As to `Cc1cccnc1C(=O)N1CCCC[C@H]1c1cc2nc(N3C[C@@H](C#N)[C@@H](O)C3)c(C)cn2n1` [Compound 179], the “Percent inhibition at 0.5 μM” value is 93%.

Staying with this assay, now noted: human respiratory syncytial virus, HEp-2, 0.5 μM compound; RSV A2-infected Hep2 cells; % inhibition calculated from 4-parameter dose response curve, normalized to 0% and 100%; read-out: Percent inhibition at 0.5 μM.
Turning to `Cc1cn2nc([C@@H]3CCCCN3C(=O)c3ccc(F)c(F)c3C)cc2nc1N1C[C@@H](C#N)[C@@H](O)C1` [Compound 149], the inhibition at 0.5 µM is 100%.

On to `Cc1cn2nc([C@@H]3CCCCN3C(=O)c3ccc(F)cc3F)cc2nc1N1C[C@@H](C#N)[C@@H](O)C1` [Compound 150], for which the inhibition at 0.5 µM was 99%.

Turning to `Cc1cn2nc([C@@H]3CCCCN3C(=O)c3cccc4cc[nH]c34)cc2nc1N1C[C@@H](C#N)[C@@H](O)C1` [Compound 151], the inhibition at 0.5 µM was 100%.

In the case of `Cc1cn2nc([C@@H]3CCCCN3C(=O)c3nc(Cl)ccc3Cl)cc2nc1N1C[C@@H](C#N)[C@@H](O)C1` [Compound 152], the inhibition at 0.5 µM is 100%.

For `Cc1cc(F)c(F)cc1C(=O)N1CCCC[C@H]1c1cc2nc(N3C[C@@H](C#N)[C@@H](O)C3)c(C)cn2n1` [Compound 153], the inhibition at 0.5 µM is 100%.

On to `Cc1cn2nc([C@@H]3CCCCN3C(=O)c3ncccc3Br)cc2nc1N1C[C@@H](C#N)[C@@H](O)C1` [Compound 154], for which the inhibition at 0.5 µM was 90%.

For the compound `Cc1cc(F)ccc1C(=O)N1CCCC[C@H]1c1cc2nc(N3C[C@@H](C#N)[C@@H](O)C3)c(C)cn2n1` [Compound 155], the inhibition at 0.5 µM was 100%.

With `Cc1ccc(F)cc1C(=O)N1CCCC[C@H]1c1cc2nc(N3C[C@@H](C#N)[C@@H](O)C3)c(C)cn2n1` [Compound 156], the inhibition at 0.5 µM is 100%.

For the compound `Cc1cn2nc([C@@H]3CCCCN3C(=O)c3c(F)cccc3F)cc2nc1N1C[C@@H](C#N)[C@@H](O)C1` [Compound 157], the inhibition at 0.5 µM was 98%.

Regarding `Cc1cccnc1C(=O)N1CCCC[C@H]1c1cc2nc(N3C[C@@H](C#N)[C@@H](O)C3)c(C)cn2n1` [Compound 159], the inhibition at 0.5 µM was 91%.

With `Cc1cn2nc([C@@H]3CCCCN3C(=O)c3cccc(F)n3)cc2nc1N1C[C@@H](C#N)[C@@H](O)C1` [Compound 160], the inhibition at 0.5 µM is 71%.

In the case of `Cc1cn2nc([C@@H]3CCCCN3C(=O)c3cc(I)ccn3)cc2nc1N1C[C@@H](C#N)[C@@H](O)C1` [Compound 161], the inhibition at 0.5 µM was 61%.

With `Cc1cn2nc([C@@H]3CCCCN3C(=O)c3cccc4c3CCCC4)cc2nc1N1C[C@@H](C#N)[C@@H](O)C1` [Compound 162], the inhibition at 0.5 µM is 100%.

As for `Cc1cn2nc([C@@H]3CCCCN3C(=O)c3nccc4ccccc34)cc2nc1N1C[C@@H](C#N)[C@@H](O)C1` [Compound 163], the inhibition at 0.5 µM was 100%.

Regarding `COc1cccc(C(=O)N2CCCC[C@H]2c2cc3nc(N4C[C@@H](C#N)[C@@H](O)C4)c(C)cn3n2)c1C` [Compound 165], the inhibition at 0.5 µM was 92%.

Turning to `COc1cc(C)c(C(=O)N2CCCC[C@H]2c2cc3nc(N4C[C@@H](C#N)[C@@H](O)C4)c(C)cn3n2)cc1C` [Compound 167], the inhibition at 0.5 µM was 100%.

For the compound `Cc1cn2nc([C@@H]3CCCCN3C(=O)c3cc(C(F)(F)F)ccn3)cc2nc1N1C[C@@H](C#N)[C@@H](O)C1` [Compound 168], the inhibition at 0.5 µM was 44%.

Take `Cc1cn2nc([C@@H]3CCCCN3C(=O)c3cccc(C)c3C)cc2nc1N1C[C@@H](C#N)[C@@H](O)C1` [Compound 169]: the inhibition at 0.5 µM is 100%.

As to `Cc1ccc(Cl)c(C(=O)N2CCCC[C@H]2c2cc3nc(N4C[C@@H](C#N)[C@@H](O)C4)c(C)cn3n2)c1` [Compound 170], the inhibition at 0.5 µM was 100%.

As for `Cc1ccc(Br)c(C(=O)N2CCCC[C@H]2c2cc3nc(N4C[C@@H](C#N)[C@@H](O)C4)c(C)cn3n2)c1` [Compound 171], the inhibition at 0.5 µM was 100%.

On to `Cc1cn2nc([C@@H]3CCCCN3C(=O)c3cccc(F)c3C)cc2nc1N1C[C@@H](C#N)[C@@H](O)C1` [Compound 172], for which the inhibition at 0.5 µM was 100%.

Turning to `COc1cc(C)ccc1C(=O)N1CCCC[C@H]1c1cc2nc(N3C[C@@H](C#N)[C@@H](O)C3)c(C)cn2n1` [Compound 173], the inhibition at 0.5 µM was 98%.

For `COc1cc2ccccc2cc1C(=O)N1CCCC[C@H]1c1cc2nc(N3C[C@@H](C#N)[C@@H](O)C3)c(C)cn2n1` [Compound 174], the inhibition at 0.5 µM was 58%.

Turning to `Cc1cn2nc([C@@H]3CCCCN3C(=O)c3cccc4n[nH]cc34)cc2nc1N1C[C@@H](C#N)[C@@H](O)C1` [Compound 175], the inhibition at 0.5 µM was 91%.

`Cc1cccc(C(=O)N2CCCC[C@H]2c2cc3nc(N4C[C@@H](C#N)[C@@H](O)C4)c(C)cn3n2)n1` [Compound 176]: the inhibition at 0.5 µM was 97%.

As to `Cc1cn2nc([C@@H]3CCCCN3C(=O)c3ccc(Cl)c(Cl)c3)cc2nc1N1C[C@@H](C#N)[C@@H](O)C1` [Compound 177], the inhibition at 0.5 µM was 99%.

As to `COc1ccsc1C(=O)N1CCCC[C@H]1c1cc2nc(N3C[C@@H](C#N)[C@@H](O)C3)c(C)cn2n1` [Compound 178], the inhibition at 0.5 µM was 100%.

Regarding `Cc1cn2nc([C@@H]3CCCCN3C(=O)c3ccccc3-c3ccccc3)cc2nc1N1C[C@@H](C#N)[C@@H](O)C1` [Compound 180], the inhibition at 0.5 µM was 94%.

Consider `Cc1cn2nc([C@@H]3CCCCN3C(=O)c3ccsc3)cc2nc1N1C[C@@H](C#N)[C@@H](O)C1` [Compound 181], for which the inhibition at 0.5 µM is 83%.

As to `Cc1cn2nc([C@@H]3CCCCN3C(=O)c3c(Cl)c(C)nn3C)cc2nc1N1C[C@@H](C#N)[C@@H](O)C1` [Compound 182], the inhibition at 0.5 µM is 93%.

Consider `Cc1cn2nc([C@@H]3CCCCN3C(=O)c3csc4c3CCCC4)cc2nc1N1C[C@@H](C#N)[C@@H](O)C1` [Compound 183], for which the inhibition at 0.5 µM was 100%.

As to `Cc1cn2nc([C@@H]3CCCCN3C(=O)c3ccccc3C(F)(F)F)cc2nc1N1C[C@@H](C#N)[C@@H](O)C1` [Compound 184], the inhibition at 0.5 µM is 100%.

For the compound `Cc1cn2nc([C@@H]3CCCCN3C(=O)c3cccc4c3ccn4C)cc2nc1N1C[C@@H](C#N)[C@@H](O)C1` [Compound 185], the inhibition at 0.5 µM was 100%.

Turning to `Cc1cn2nc([C@@H]3CCCCN3C(=O)c3cc(F)ccc3Cl)cc2nc1N1C[C@@H](C#N)[C@@H](O)C1` [Compound 186], the inhibition at 0.5 µM is 100%.

As to `Cc1cn2nc([C@@H]3CCCCN3C(=O)c3nn(C)c4ccccc34)cc2nc1N1C[C@@H](C#N)[C@@H](O)C1` [Compound 187], the inhibition at 0.5 µM was 100%.

Take `COc1ccc(Cl)c(C(=O)N2CCCC[C@H]2c2cc3nc(N4C[C@@H](C#N)[C@@H](O)C4)c(C)cn3n2)c1` [Compound 188]: the inhibition at 0.5 µM was 100%.

For the compound `Cc1cn2nc([C@@H]3CCCCN3C(=O)c3ccnn3CC(F)(F)F)cc2nc1N1C[C@@H](C#N)[C@@H](O)C1` [Compound 189], the inhibition at 0.5 µM was 89%.

`Cc1cn2nc([C@@H]3CCCCN3C(=O)c3c(Cl)cnn3C(C)C)cc2nc1N1C[C@@H](C#N)[C@@H](O)C1` [Compound 190]: the inhibition at 0.5 µM is 100%.

`Cc1cn2nc([C@@H]3CCCCN3C(=O)c3cc(Cl)ccc3NS(C)(=O)=O)cc2nc1N1C[C@@H](C#N)[C@@H](OP(=O)(O)O)C1` [Compound 192]: the inhibition at 0.5 µM is 100%.

With `Cc1ccnc(C(=O)N2CCCC[C@H]2c2cc3nc(N4CC(C#N)[C@@H](O)C4)c(C)cn3n2)c1` (some centres unmarked) [Compound 196], the inhibition at 0.5 µM is 96%.

On to `Cc1ccc(N2CCCS2(=O)=O)c(C(=O)N2CCCC[C@H]2c2cc3nc(N4C[C@@H](C#N)[C@@H](O)C4)c(C)cn3n2)c1` [Compound 197], for which the inhibition at 0.5 µM was 100%.

Regarding `Cc1cn2nc([C@@H]3CCCCN3C(=O)c3cc(Br)ccc3NS(C)(=O)=O)cc2nc1N1C[C@@H](C#N)[C@@H](O)C1` [Compound 199], the inhibition at 0.5 µM is 100%.

As to `COc1ccc(Cl)cc1C(=O)N1CCCC[C@H]1c1cc2nc(N3C[C@@H](C#N)[C@@H](O)C3)c(C)cn2n1` [Compound 201], the inhibition at 0.5 µM was 100%.

Consider `Cc1ccc(Cl)cc1C(=O)N1CCCC[C@H]1c1cc2nc(N3C[C@@H](C#N)[C@@H](O)C3)c(C)cn2n1` [Compound 202], for which the inhibition at 0.5 µM was 100%.

As to `CC(=O)Nc1ccc(C)cc1C(=O)N1CCCC[C@H]1c1cc2nc(N3CC(O)C(C#N)C3)c(C)cn2n1` (some centres unmarked) [Compound 203], the inhibition at 0.5 µM is 100%.

`Cc1cn2nc([C@@H]3CCCCN3C(=O)c3cc(Cl)ccc3NS(C)(=O)=O)cc2nc1N1C[C@@H](C#N)[C@@H](OC(=O)[C@H](N)C(C)C)C1` [Compound 204]: the inhibition at 0.5 µM is 100%.

For the compound `Cc1cn2nc([C@@H]3CCCCN3C(=O)c3cc(Cl)ccc3NS(C)(=O)=O)cc2nc1N1C[C@@H](C#N)[C@@H](OC(=O)[C@H]2CCCN2)C1` [Compound 205], the inhibition at 0.5 µM was 100%.

As to `Cc1cn2nc([C@@H]3CCCCN3C(=O)c3cc(Cl)ccc3NS(C)(=O)=O)cc2nc1N1C[C@@H](C#N)[C@@H](OC(=O)CN)C1` [Compound 206], the inhibition at 0.5 µM is 100%.

As for `Cc1cn2nc([C@@H]3CCCCN3C(=O)c3cc(Cl)ccc3NS(C)(=O)=O)cc2nc1N1C[C@@H](C#N)[C@@H](OC(=O)CCC(=O)O)C1` [Compound 207], the inhibition at 0.5 µM is 100%.

As to `Cc1cn2nc([C@@H]3CCCCN3C(=O)c3cc(Cl)ccc3NS(C)(=O)=O)cc2nc1N1C[C@@H](C#N)[C@@H](OC(=O)c2cccnc2)C1` [Compound 208], the inhibition at 0.5 µM was 100%.

Take `Cc1cn2nc([C@@H]3CCCCN3C(=O)c3cc(Cl)ccc3NS(C)(=O)=O)cc2nc1N1C[C@@H](C#N)[C@@H](OC(=O)CCC(=O)NCCN2CCOCC2)C1` [Compound 209]: the inhibition at 0.5 µM was 100%.

Still in this assay, the particulars now being: human respiratory syncytial virus, HEp-2, read-out: Percent inhibition at 0.5 μM.
In the case of `Cc1ccc(NS(C)(=O)=O)c(C(=O)N2CCCC[C@H]2c2cc3nc(N4C[C@@H](C#N)[C@@H](O)C4)c(C)cn3n2)c1` [Compound 200], the inhibition at 0.5 µM is 100%.

The record behind these values is US8946238B2, “Pyrazolo[1,5-A]pyrimidines as antiviral agents” (Gilead Sciences, Inc., priority 2011, dated 2015).
